Measurements from ChEMBL document CHEMBL1201862, “PubChem BioAssay data set” (2004).
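Method: 48-hour compound exposure of cells in 96-well plates, five concentrations, linear interpolation of endpoints. GI50 = concentration required for 50% inhibition of growth.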 Calls of active or inactive are those of the source. No stated cut-off is given here; in the data, active = GI50 up to about 1.1 µM and inactive = higher.

Assays:
Assay in all cases: NCI tumour cell line growth inhibition, 48 h
M14 = test system: M14
SNB-19 = test system: SNB-19
IGROV-1 = test system: IGROV-1
M19-MEL = test system: M19-MEL
SK-MEL-5 = test system: SK-MEL-5
NCI-H23 = test system: NCI-H23
EKVX = test system: EKVX
SN12C = test system: SN12C
786-0 = test system: 786-0
XF498 = test system: XF498
HOP-62 = test system: HOP-62
DMS-114 = test system: DMS-114
SF-539 = test system: SF-539
LXFL 529 = test system: LXFL 529
SF-268 = test system: SF-268
A549 = test system: A549
SK-MEL-28 = test system: SK-MEL-28
SF-295 = test system: SF-295
Malme-3M = test system: Malme-3M
LOX IMVI = test system: LOX IMVI
SW-620 = test system: SW-620
COLO 205 = test system: COLO 205
RPMI-8226 = test system: RPMI-8226
KM-20L2 = test system: KM-20L2
HT-29 = test system: HT-29
SK-MEL-2 = test system: SK-MEL-2
SNB-75 = test system: SNB-75
HL-60 = test system: HL-60
OVCAR-3 = test system: OVCAR-3
DLD-1 = test system: DLD-1
OVCAR-8 = test system: OVCAR-8
HCC 2998 = test system: HCC 2998
K562 = test system: K562
NCI-H226 = test system: NCI-H226
UO-31 = test system: UO-31
RXF 631 = test system: RXF 631
UACC-62 = test system: UACC-62
A498 = test system: A498
NCI-H460 = test system: NCI-H460
SR = test system: SR
HCT-15 = test system: HCT-15
HCT-116 = test system: HCT-116
CCRF-CEM = test system: CCRF-CEM
RXF 393 = test system: RXF 393
TK-10 = test system: TK-10
MOLT-4 = test system: MOLT-4
U-251 = test system: U-251
ACHN = test system: ACHN
DMS-273 = test system: DMS-273
UACC-257 = test system: UACC-257
OVCAR-5 = test system: OVCAR-5
SK-OV-3 = test system: SK-OV-3
CAKI-1 = test system: CAKI-1
OVCAR-4 = test system: OVCAR-4
NCI-H522 = test system: NCI-H522
SNB-78 = test system: SNB-78
HOP-92 = test system: HOP-92
KM12 = test system: KM12

Measured: GI50

COc1c(C)cc2c(c1O)C1NC(C2)[C@H](O)N2C3COC(=O)[C@@]4(CS[C@@H](c5c(OC(C)=O)c(C)c6c(c53)OCO6)C12)NCCC1=C4NC2C=CC=CC12 (some centres not stated)
0.0104 µM: HCT-15
active: M14 < 0.01 µM | SNB-19 < 0.01 µM | IGROV-1 < 0.01 µM | M19-MEL < 0.01 µM | SK-MEL-5 < 0.01 µM | NCI-H23 < 0.01 µM | EKVX < 0.01 µM | SN12C < 0.01 µM | 786-0 < 0.01 µM | XF498 < 0.01 µM | HOP-62 < 0.01 µM | DMS-114 < 0.01 µM | SF-539 < 0.01 µM | LXFL 529 < 0.01 µM | SF-268 < 0.01 µM | A549 < 0.01 µM | SK-MEL-28 < 0.01 µM | SF-295 < 0.01 µM | Malme-3M < 0.01 µM | LOX IMVI < 0.01 µM | SW-620 < 0.01 µM | COLO 205 < 0.01 µM | RPMI-8226 < 0.01 µM | KM-20L2 < 0.01 µM | HT-29 < 0.01 µM | SK-MEL-2 < 0.01 µM | SNB-75 < 0.01 µM | HL-60 < 0.01 µM | OVCAR-3 < 0.01 µM | DLD-1 < 0.01 µM | OVCAR-8 < 0.01 µM | HCC 2998 < 0.01 µM | K562 < 0.01 µM | NCI-H226 < 0.01 µM | UO-31 0.0148 µM | RXF 631 < 0.01 µM | UACC-62 < 0.01 µM | A498 < 0.01 µM | NCI-H460 < 0.01 µM | SR < 0.01 µM | HCT-116 < 0.01 µM | CCRF-CEM < 0.01 µM | RXF 393 < 0.01 µM | TK-10 < 0.01 µM | MOLT-4 < 0.01 µM | U-251 < 0.01 µM | ACHN < 0.01 µM | DMS-273 < 0.01 µM

CC(C)(C)OC(=O)NC1CCC[C@H]1O (some centres not stated)
inactive: M14 > 100 µM | SNB-19 > 100 µM | UACC-257 > 100 µM | M19-MEL > 100 µM | SK-MEL-5 > 100 µM | NCI-H23 > 100 µM | EKVX > 100 µM | SN12C > 100 µM | 786-0 > 100 µM | XF498 > 100 µM | OVCAR-5 > 100 µM | HOP-62 > 100 µM | DMS-114 > 100 µM | SF-539 > 100 µM | SK-OV-3 > 100 µM | LXFL 529 > 100 µM | SF-268 > 100 µM | CAKI-1 > 100 µM | A549 > 100 µM | SK-MEL-28 > 100 µM | SF-295 > 100 µM | LOX IMVI > 100 µM | SW-620 > 100 µM | KM-20L2 > 100 µM | HT-29 > 100 µM | SK-MEL-2 > 100 µM | SNB-75 47.3 µM | OVCAR-4 > 100 µM | OVCAR-3 > 100 µM | DLD-1 > 100 µM | OVCAR-8 > 100 µM | HCC 2998 > 100 µM | K562 > 100 µM | NCI-H522 > 100 µM | NCI-H226 > 100 µM | UO-31 > 100 µM | RXF 631 > 100 µM | SNB-78 > 100 µM | UACC-62 > 100 µM | HOP-92 > 100 µM | A498 > 100 µM | NCI-H460 > 100 µM | SR > 100 µM | HCT-116 > 100 µM | CCRF-CEM > 100 µM | RXF 393 > 100 µM | TK-10 > 100 µM | KM12 > 100 µM | MOLT-4 > 100 µM | U-251 > 100 µM | ACHN > 100 µM | DMS-273 > 100 µM
active: Malme-3M 0.265 µM
